# Laboratory results published in patent US20230398130A1, “METHODS AND COMPOSITIONS FOR DIFFERENTIATING STEM CELLS” (Massachusetts Institute of Technology, priority 2020, published 2023).
# Structures can show the parent of a compound that is named as a salt.
# Key:
# ISC-enriched organoids [1] = assay: Primary screen, 384-well 2.5-D organoid differentiation (ENR+CD, 6 days): basal lysozyme secretion (LYZ.NS); type: cell-based, murine; details: for Dose.FC.LYZ.NS: FC vs plate median; for SSMD.LYZ.NS: strictly standardized mean difference
# Text: (§1) High-throughput screening.
# ISC-enriched organoids [2] = assay: Primary screen, 384-well 2.5-D organoid differentiation (ENR+CD, 6 days): carbachol-induced lysozyme secretion (LYZ.S); type: cell-based, murine; details: primary screen; for Dose.FC.LYZ.S: FC vs plate median; for Z.LYZ.S: standard z score; for SSMD.LYZ.S: strictly standardized mean difference
# Text: as §1
# ISC-enriched organoids [3] = assay: Primary screen, 384-well 2.5-D organoid differentiation (ENR+CD, 6 days, Target Selective Inhibitor Library, vs whole-plate median): ATP (CellTiter-Glo 3D, CTG); details: for Dose.FC.CTG: FC vs plate median; for SSMD.CTG: strictly standardized mean difference
# [4] = Dose 0.08 uM, primary screen, standard z score
# [5] = Dose 0.40 uM, primary screen, standard z score
# [6] = Dose 2.00 uM, primary screen, standard z score
# [7] = Dose 10.00 uM, primary screen, standard z score
# [8] = primary screen, 1st of the 4 dose lines of the treatment (dose not given)
# [9] = primary screen, 2nd of the 4 dose lines of the treatment (dose not given)
# [10] = primary screen, 3rd of the 4 dose lines of the treatment (dose not given)
# [11] = primary screen, 4th of the 4 dose lines of the treatment (dose not given)
# [12] = 1st of the 4 dose lines of the treatment (dose not given)
# [13] = 2nd of the 4 dose lines of the treatment (dose not given)
# [14] = 3rd of the 4 dose lines of the treatment (dose not given)
# [15] = 4th of the 4 dose lines of the treatment (dose not given)
# [16] = Dose 0.08 uM, standard z score of FC
# [17] = Dose 0.40 uM, standard z score of FC
# [18] = Dose 2.00 uM, standard z score of FC
# [19] = Dose 10.00 uM, standard z score of FC
molecule,measurement,setting,value
HA14-1,Dose.FC.LYZ.NS,"ISC-enriched organoids [1]; Dose 0.08 uM, primary screen",0.121 log 2 fold change
same,Z.LYZ.NS,ISC-enriched organoids [1]; [4],1.052
same,Dose.FC.LYZ.NS,"ISC-enriched organoids [1]; Dose 0.40 uM, primary screen",0.137 log 2 fold change
same,Z.LYZ.NS,ISC-enriched organoids [1]; [5],1.195
same,Dose.FC.LYZ.NS,"ISC-enriched organoids [1]; Dose 2.00 uM, primary screen",0.154 log 2 fold change
same,Z.LYZ.NS,ISC-enriched organoids [1]; [6],1.345
same,Dose.FC.LYZ.NS,"ISC-enriched organoids [1]; Dose 10.00 uM, primary screen",0.132 log 2 fold change
same,Z.LYZ.NS,ISC-enriched organoids [1]; [7],1.151
same,SSMD.LYZ.NS,ISC-enriched organoids [1]; [8],1.056
same,SSMD.LYZ.NS,ISC-enriched organoids [1]; [9],1.013
same,SSMD.LYZ.NS,ISC-enriched organoids [1]; [10],1.483
same,SSMD.LYZ.NS,ISC-enriched organoids [1]; [11],0.640
same,Dose.FC.LYZ.S,ISC-enriched organoids [2]; Dose 0.08 uM,0.190 log 2 fold change
same,Dose.FC.LYZ.S,ISC-enriched organoids [2]; Dose 0.40 uM,0.316 log 2 fold change
same,Dose.FC.LYZ.S,ISC-enriched organoids [2]; Dose 2.00 uM,0.170 log 2 fold change
same,Dose.FC.LYZ.S,ISC-enriched organoids [2]; Dose 10.00 uM,0.149 log 2 fold change
same,Z.LYZ.S,ISC-enriched organoids [2]; [12],1.231
same,Z.LYZ.S,ISC-enriched organoids [2]; [13],2.041
same,Z.LYZ.S,ISC-enriched organoids [2]; [14],1.099
same,Z.LYZ.S,ISC-enriched organoids [2]; [15],0.964
same,SSMD.LYZ.S,ISC-enriched organoids [2]; [12],1.264
same,SSMD.LYZ.S,ISC-enriched organoids [2]; [13],1.052
same,SSMD.LYZ.S,ISC-enriched organoids [2]; [14],1.202
same,SSMD.LYZ.S,ISC-enriched organoids [2]; [15],0.449
same,Dose.FC.CTG,"ISC-enriched organoids [3]; Dose 0.08 uM, primary screen",0.534 log 2 fold change
same,Z.CTG,ISC-enriched organoids [3]; [4],1.276
same,Dose.FC.CTG,"ISC-enriched organoids [3]; Dose 0.40 uM, primary screen",0.526 log 2 fold change
same,Z.CTG,ISC-enriched organoids [3]; [5],1.255
same,Dose.FC.CTG,"ISC-enriched organoids [3]; Dose 2.00 uM, primary screen",0.554 log 2 fold change
same,Z.CTG,ISC-enriched organoids [3]; [6],1.323
same,Dose.FC.CTG,"ISC-enriched organoids [3]; Dose 10.00 uM, primary screen",0.388 log 2 fold change
same,Z.CTG,ISC-enriched organoids [3]; [7],0.926
same,SSMD.CTG,ISC-enriched organoids [3]; [8],1.389
same,SSMD.CTG,ISC-enriched organoids [3]; [9],1.961
same,SSMD.CTG,ISC-enriched organoids [3]; [10],2.075
same,SSMD.CTG,ISC-enriched organoids [3]; [11],1.289
CC12CC3CC(C)(C1)CC(N)(C3)C2 [Memantine HCl],SSMD.LYZ.NS,ISC-enriched organoids [1]; [8],0.489
same,SSMD.LYZ.NS,ISC-enriched organoids [1]; [9],0.038
same,SSMD.LYZ.NS,ISC-enriched organoids [1]; [10],0.745
same,SSMD.LYZ.NS,ISC-enriched organoids [1]; [11],−0.407
same,Z.LYZ.S,ISC-enriched organoids [2]; [12],0.586
same,Z.LYZ.S,ISC-enriched organoids [2]; [13],0.112
same,Z.LYZ.S,ISC-enriched organoids [2]; [14],0.328
same,Z.LYZ.S,ISC-enriched organoids [2]; [15],−0.138
same,SSMD.LYZ.S,ISC-enriched organoids [2]; [12],0.420
same,SSMD.LYZ.S,ISC-enriched organoids [2]; [13],0.134
same,SSMD.LYZ.S,ISC-enriched organoids [2]; [14],0.292
same,SSMD.LYZ.S,ISC-enriched organoids [2]; [15],−0.142
same,Z.CTG,ISC-enriched organoids [3]; [4],0.199
same,Z.CTG,ISC-enriched organoids [3]; [5],0.173
same,Z.CTG,ISC-enriched organoids [3]; [6],−0.018
same,Z.CTG,ISC-enriched organoids [3]; [7],0.184
same,SSMD.CTG,ISC-enriched organoids [3]; [8],0.214
same,SSMD.CTG,ISC-enriched organoids [3]; [9],0.219
same,SSMD.CTG,ISC-enriched organoids [3]; [10],−0.016
same,SSMD.CTG,ISC-enriched organoids [3]; [11],0.145
O=C(/C=C\n1cnc(-c2cc(C(F)(F)F)cc(C(F)(F)F)c2)n1)N1CC(F)(F)C1 [KPT-276],Dose.FC.LYZ.NS,"ISC-enriched organoids [1]; Dose 0.08 uM, primary screen",0.056 log 2 fold change
same,Z.LYZ.NS,ISC-enriched organoids [1]; [4],0.492
same,Dose.FC.LYZ.NS,"ISC-enriched organoids [1]; Dose 0.40 uM, primary screen",0.086 log 2 fold change
same,Z.LYZ.NS,ISC-enriched organoids [1]; [5],0.746
same,Dose.FC.LYZ.NS,"ISC-enriched organoids [1]; Dose 2.00 uM, primary screen",−0.224 log 2 fold change
same,Z.LYZ.NS,ISC-enriched organoids [1]; [6],−1.947
same,Dose.FC.LYZ.NS,"ISC-enriched organoids [1]; Dose 10.00 uM, primary screen",−0.256 log 2 fold change
same,Z.LYZ.NS,ISC-enriched organoids [1]; [7],−2.230
same,SSMD.LYZ.NS,ISC-enriched organoids [1]; [8],0.486
same,SSMD.LYZ.NS,ISC-enriched organoids [1]; [9],0.742
same,SSMD.LYZ.NS,ISC-enriched organoids [1]; [10],−1.426
same,SSMD.LYZ.NS,ISC-enriched organoids [1]; [11],−1.384
same,Dose.FC.LYZ.S,ISC-enriched organoids [2]; Dose 0.08 uM,0.133 log 2 fold change
same,Dose.FC.LYZ.S,ISC-enriched organoids [2]; Dose 0.40 uM,0.148 log 2 fold change
same,Dose.FC.LYZ.S,ISC-enriched organoids [2]; Dose 2.00 uM,−0.327 log 2 fold change
same,Dose.FC.LYZ.S,ISC-enriched organoids [2]; Dose 10.00 uM,−0.361 log 2 fold change
same,Z.LYZ.S,ISC-enriched organoids [2]; [12],0.860
same,Z.LYZ.S,ISC-enriched organoids [2]; [13],0.958
same,Z.LYZ.S,ISC-enriched organoids [2]; [14],−2.111
same,Z.LYZ.S,ISC-enriched organoids [2]; [15],−2.335
same,SSMD.LYZ.S,ISC-enriched organoids [2]; [12],0.806
same,SSMD.LYZ.S,ISC-enriched organoids [2]; [13],0.771
same,SSMD.LYZ.S,ISC-enriched organoids [2]; [14],−1.399
same,SSMD.LYZ.S,ISC-enriched organoids [2]; [15],−1.417
same,Dose.FC.CTG,"ISC-enriched organoids [3]; Dose 0.08 uM, primary screen",0.167 log 2 fold change
same,Z.CTG,ISC-enriched organoids [3]; [4],0.399
same,Dose.FC.CTG,"ISC-enriched organoids [3]; Dose 0.40 uM, primary screen",−0.044 log 2 fold change
same,Z.CTG,ISC-enriched organoids [3]; [5],−0.104
same,Dose.FC.CTG,"ISC-enriched organoids [3]; Dose 2.00 uM, primary screen",−0.413 log 2 fold change
same,Z.CTG,ISC-enriched organoids [3]; [6],−0.986
same,Dose.FC.CTG,"ISC-enriched organoids [3]; Dose 10.00 uM, primary screen",−0.703 log 2 fold change
same,Z.CTG,ISC-enriched organoids [3]; [7],−1.680
same,SSMD.CTG,ISC-enriched organoids [3]; [8],0.494
same,SSMD.CTG,ISC-enriched organoids [3]; [9],−0.146
same,SSMD.CTG,ISC-enriched organoids [3]; [10],−0.772
same,SSMD.CTG,ISC-enriched organoids [3]; [11],−2.520
C1=N/C2=N/c3ccc(OCCN4CCCC4)c(c3)COC/C=C/COCc3cccc(c3)C(=C1)N2 [Pacritinib (SB1518)],Dose.FC.LYZ.NS,"ISC-enriched organoids [1]; Dose 0.08 uM, primary screen",0.091 log 2 fold change
same,Z.LYZ.NS,ISC-enriched organoids [1]; [16],0.795
same,Dose.FC.LYZ.NS,"ISC-enriched organoids [1]; Dose 0.40 uM, primary screen",−0.034 log 2 fold change
same,Z.LYZ.NS,ISC-enriched organoids [1]; [17],−0.299
same,Dose.FC.LYZ.NS,"ISC-enriched organoids [1]; Dose 2.00 uM, primary screen",−0.219 log 2 fold change
same,Z.LYZ.NS,ISC-enriched organoids [1]; [18],−1.908
same,Dose.FC.LYZ.NS,"ISC-enriched organoids [1]; Dose 10.00 uM, primary screen",−0.275 log 2 fold change
same,Z.LYZ.NS,ISC-enriched organoids [1]; [19],−2.391
same,Dose.FC.LYZ.S,ISC-enriched organoids [2]; Dose 0.08 uM,0.066 log 2 fold change
same,Dose.FC.LYZ.S,ISC-enriched organoids [2]; Dose 0.40 uM,−0.032 log 2 fold change
same,Dose.FC.LYZ.S,ISC-enriched organoids [2]; Dose 2.00 uM,−0.304 log 2 fold change
same,Dose.FC.LYZ.S,ISC-enriched organoids [2]; Dose 10.00 uM,−0.419 log 2 fold change
same,Dose.FC.CTG,"ISC-enriched organoids [3]; Dose 0.08 uM, primary screen",−0.006 log 2 fold change
same,Z.CTG,ISC-enriched organoids [3]; [16],−0.014
same,Dose.FC.CTG,"ISC-enriched organoids [3]; Dose 0.40 uM, primary screen",0.099 log 2 fold change
same,Z.CTG,ISC-enriched organoids [3]; [17],0.236
same,Dose.FC.CTG,"ISC-enriched organoids [3]; Dose 2.00 uM, primary screen",−0.235 log 2 fold change
same,Z.CTG,ISC-enriched organoids [3]; [18],−0.560
same,Dose.FC.CTG,"ISC-enriched organoids [3]; Dose 10.00 uM, primary screen",−1.276 log 2 fold change
same,Z.CTG,ISC-enriched organoids [3]; [19],−3.047
